Legend:
[1] = MTT cell viability / cytotoxicity assay, HUVECs; format: cell-based; details: human; 500 μM 2, 24 h, MTT
Procedure: Cells were plated in flat-bottom 96-well plates at a density of 3 × 10^3 cells per well. After 12 h of cell attachment, the cell culture medium was replaced with 100 μL of pre-warmed media containing the compounds at different concentrations. After 24–72 h of incubation, cell proliferation was assessed by the MTT assay. A fresh mixture of 10 μL of thiazolyl blue tetrazolium bromide (MTT) and 90 μL of medium were freshly added to each well. After incubation for 4 h, the medium was gently removed. The formazan crystals that formed were dissolved in 110 μL of DMSO, and the absorbance was subsequently measured with a plate reader (Perkin Elmer) at 490 nm. EC50 values were calculated using Origin software. To measure the cytotoxicity of 2, HeLa cells, HUVECs, Saos-2 cells and CCC-HEH-2 cells were incubated with 100 μL of 1–500 μM 2 for 24 h, and then, cell viability was determined. To measure the cytotoxicity of TCO-Dox or Dox, HeLa cells, HUVECs, Saos-2 cells or CCC-HEH-2 cells were incubated with 200 μL of 0.001–10 μM TCO-Dox or Dox for 72 h, and the cell viability was determined. To determine the cytotoxicity of activated Dox, HeLa cells, HUVECs, […], and then, 2 was removed and 200 μL of 0.0001–10 μM TCO-Dox was added for 72 h of incubation, and cell viability was determined. […]
Prodrug activation efficacy in cells: Cells were plated on flat bottom 96-well plates at a
density of 3x10^3 cells per well. After 12 h attachment, cells were incubated with 100 µL
500 µM of 2 for 6 h before removing 2 and the addition of 200 µL 0.0001-10 µM of […]

Saos-2 cells = test: Clonogenic assay, Saos-2 cells; format: cell-based; details: pre-treated with 500 μM 2 for 6 h
Procedure: (§1) Supplementary Figure 17. Clonogenic assay of different cell lines before and after treatment with 2. HeLa cells, HUVECs and Saos-2 cells were seeded at density of 400 cells per well, CCC-HEH-2 cells were seeded at density of 200 cells per well. Cells were incubated with 500 µM 2 for 6 h in the treatment groups. Cells were not treated with compound 2 in the control groups. Colonies were harvest approximately 10 days after seeding. Scale bar, 10 mm.
(§2) Supplementary Figure 18. Cytotoxicity of activated Dox against HeLa cells and HUVECs. HeLa cells or HUVECs at the density of 3x10^3 cells per well were incubated with 100 µL of pre-warmed medium containing compound 2 at 300 or 500 µM for 6 h. After washing with PBS, 100 µL of 0.0001-10 µM TCO-Dox was added. After 72 h, cell proliferation was assessed by the MTT assay (n= 6). Error bars indicate standard […]
(§3) Supplementary Figure 19. […] At each time point, the remaining 2, corresponding generated 3 and remaining TCO-Dox were determined by UPLC-MS/MS. […]
(§4) Clonogenic assay of cells in vitro: Clonogenic assay was performed according to the standard protocol.6 2×10^5 attached cells were treated with 500 µM of 2 for 6 h in culture dishes. Cells were then detached, re-suspended in cultural medium and counted accurately. […]
(§5) The glutaraldehyde crystal violet mixture was removed carefully. […] The number of the colonies was counted using a stereomicroscope. […]

CCC-HEH-2 cells = test: Clonogenic assay, CCC-HEH-2 cells; format: cell-based, human; details: pre-treated with 500 μM 2 for 6 h
Procedure: as §1, §2, §3, §4, §5

Cc1nnc(-c2ccc(CC(=O)NCCCCC(NC(=O)Cc3ccc4ccccc4c3)C(=O)NC(Cc3ccc(OP(=O)(O)O)cc3)C(=O)NC(Cc3ccccc3)C(=O)O)cc2)nn1 (stereo not drawn) [compound 2, NapK(Tz)YpF]
viability at 24 h, 500 μM [1]: > 85%
Surviving Fraction, Saos-2 (Saos-2 cells): 0±0%
Surviving Fraction, CCC-HEH-2 (CCC-HEH-2 cells): 92.2 ±8.3%
